Patent US20110207745A1 (priority 2009, published 2011)
Where “and” joins values, the source holds several entries; their conditions need not be identical. Equal values may be shown once. Where a name gives a salt, the structure may show the parent alone. Read-outs that look alike come from different tables or passages of the source.

Key:
[1] = for % Purity after 60° C./80% RH, 2 wks / % Purity after 80° C., 2 wks: 2 weeks; for % Purity after 60° C./80% RH, 2 wks / % Purity after 60° C./80% RH, 4 wks / % Purity after 80° C., 2 wks / % Purity after 80° C., 4 wks / Initial Purity / % Purity after 40° C./75% RH, 2 wks / % Purity after 40° C./75% RH, 4 wks: HPLC area %; for % Purity after 60° C./80% RH, 4 wks / % Purity after 80° C., 4 wks: 4 weeks; for Initial Purity: before storage
Procedure: Stress Experiments. Solids are stressed under different temperature or relative humidity (RH) environments for a measured time period. Specific RH values are achieved by placing the sample inside sealed chambers containing saturated salt solutions, as known in the art. The salt solutions are selected and prepared following an ASTM standard procedure. Samples are analyzed by XRPD immediately after removal from the stress environment.
Analyses are carried out on an Agilent® model 1100 high performance liquid chromatograph using gradient elution on a reversed phase column utilizing ultraviolet (UV) detection. Approximately 25 mg of the sample is weighed accurately and dissolved in methanol/water/trifluoroacetic acid (35:65:0.05) to a volume of 50 mL. The sample solution is analysed using the conditions specified below:
The content of the drug and related substances are quantified by area (%).
Chemical Stability. The chemical stability of Form I of the mono-HCl salt of Compound A1 was assessed by stressing the material at various temperature/relative humidity/light conditions, then analyzing by HPLC.
Chemical Stability Data. The chemical stability of a sample of Form I of the sesquifumarate salt of Compound A1 was assessed by stressing the material at various temperature/relative humidity/light conditions, then analyzing by HPLC.

[2] = Solubility in simulated biological media; type: physicochemical; settings: FaSSIF (fasted-state simulated intestinal fluid), initial pH 6.51, mean ± SD, n = 2
Source text: Solubility and Dissolution Rate Data.
Solubility and Dissolution Rate Data. […]

[3] = Intrinsic dissolution rate in simulated biological media; type: physicochemical
Procedure: Intrinsic dissolution rate is determined at 37° C. using a Distek Dissolution System model 5100A with a sample size of approximately 200 mg (0.5 cm^2 disc) and 500 mL dissolution medium. The paddle speed is set to 500 rpm and the paddle height to approximately 2.54 cm above the disc surface. The concentration of sample in solution is determined by HPLC.

rat = assay: Punished responding procedure (modified Geller-Seifter conflict test); settings: 3.5 μmol/kg by mouth
Source text: Method. In the conflict test, hungry animals were trained to lever-press for food delivery in a standard operant chamber under 2 conditions. In the first condition, referred to as the unsuppressed component, food was delivered on average after 17 lever-presses were made (also called a VR17 schedule of reinforcement). In the second condition, referred to as the suppressed component and signaled by flashing lights inside the operant chamber, food was also delivered following an average of 17 lever-presses, but electric shock was additionally delivered to the floor of the cage under a separate VR17 schedule. Daily sessions consisted of 5 alternating presentations of each component type: suppressed (3 minutes in duration) and unsuppressed (2 minutes in duration). The number of lever presses emitted in the suppressed component was obviously low relative to the unsuppressed component.
Drug Administration and Preparation. […] Monday and Wednesday were washout/baseline days.
Apparatus. Standard 2-lever operant chambers were used (Med Associates). The chambers were fitted with 2 retractable response levers and a stimulus lamp over each of the 2 levers. A pellet dispenser delivered 45 mg food pellets, (Bio Serv) to a cup located inside of the chamber below and between the 2 response levers. A lamp at the top and back of the chamber served as houselights. The grid floors of the operant chambers were interfaced to shock generators and scramblers (Med Associates). All events in the chambers were controlled and monitored by a microprocessor.
Procedures. There were 2 components in the procedure: 1) an unsuppressed responding component (unpunished) with 2 minutes in duration; and 2) a suppressed responding component (punished) with 3 minutes in duration.
In the unpunished component, the houselights and both stimulus lamps over the response levers were turned on, the lever on the left-hand side of the chamber extended, and a food pellet was delivered following an average of 17 responses on the lever in the chamber (range 3 to 40 responses)—a variable-ratio 17 schedule (VR17).
In the punished component (which followed the unpunished component), the right-hand lever was extended into the chamber; the stimulus lamps and houselights were turned on and off at 1 second intervals, in succession, which served as a cue for this component; and food was available under a VR17 schedule, but was accompanied by an electrical current (0.5 second duration) that was delivered to the grid floor of the chamber under an independent VR17 schedule. The level of the current was adjusted for each individual subject until responding was reduced in the punished component to a level that was about 5% to 10% that of the unpunished component, and ranged from 0.2 mA to 0.75 mA. Unpunished and punished components were separated by 10 second time-out periods in which both response levers were retracted and all stimulus lamps turned off. 2 minute unpunished and 3 minute punished components alternated until 5 of each were completed. Daily sessions always began with the unpunished responding component. […] Several doses were tested on a given test day in different subjects. Each dose, then, was tested in different sub-set of rats.
Data Analysis. The dependent variables recorded were the rate of responding in unpunished and punished components (total responses/total time under the component) and the number of shocks delivered.

[4] = Ultraviolet light, 25° C./60% RH, 2x ICH (2 days), stored open
[5] = Ultraviolet light, 25° C./60% RH, 3x ICH (3 days), stored open
[6] = Ultraviolet light, 25° C./60% RH, ICH (1 day), stored open
[7] = White light, 25° C./60%, ICH (7 days), stored open

For `CCN(CC)C(=O)c1ccc([C@H](c2cccc(N)c2)N2CCN(Cc3ccc(F)cc3)CC2)cc1` [Amorphous Tri-HCl Salt of Compound A1, 4-{(R)-(3-aminophenyl)[4-(4-fluorobenzyl)piperazin-1-yl]methyl}-N,N-diethylbenzamide], the “% Purity after 60° C./80% RH, 2 wks” value [1] was 93.5%, the “% Purity after 60° C./80% RH, 4 wks” value [1] was 89.7% and the “% Purity after 80° C., 2 wks” value ([1]; 80° C.) was 93.1%. For the same compound, the “% Purity after 80° C., 4 wks” value ([1]; 80° C.) was 91.1% and the “Initial Purity” value [1] was 97.7%.
For `CCN(CC)C(=O)c1ccc([C@H](c2cccc(N)c2)N2CCN(Cc3ccc(F)cc3)CC2)cc1` [Form I of the mono-HCl salt of Compound A1] [4-{(R)-(3-aminophenyl)[4-(4-fluorobenzyl)piperazin-1-yl]methyl}-N,N-diethylbenzamide], the “Solubility, 3 hr” value ([2]; 3 hr) was 1720 µg/mL, the “Solubility, 24 hr” value ([2]; 24 hr) was 830 µg/mL and the “IDR (intrinsic dissolution rate)” value ([3]; FaSSIF, initial pH 6.51, mean ± SD, n = 2) was 48.4 μg/min/cm^2. The “IDR (intrinsic dissolution rate)” value ([3]; FaSSIF, initial pH 6.51, mean ± SD, n = 2, listed as Form I of the Compound A1 Mono-HCl Salt) was 48.4 ± 7.12 μg/min/cm^2, the “IDR (intrinsic dissolution rate)” value ([3]; FeSSIF, initial pH 5.03, mean ± SD, n = 2) was 91.6 μg/min/cm^2 and the “IDR (intrinsic dissolution rate)” value ([3]; FeSSIF, initial pH 5.03, mean ± SD, n = 2, listed as Form I of the Compound A1 Mono-HCl Salt) was 91.6 ± 5.48 μg/min/cm^2. For the same compound, the “IDR (intrinsic dissolution rate)” value ([3]; SGF, initial pH 1.3) was “too soluble to permit determination of its IDR”, the “% Purity (after challenge)” value ([1]; 25° C./60% RH, 7 days) was 99.8% and the “% Purity (reference material)” value ([1]; 25° C./60% RH, 7 days) was 103.2%. The “% Purity after 40° C./75% RH, 2 wks” value ([1]; 40° C./75% RH) was 97.3% and 98.8%, the “% Purity after 40° C./75% RH, 4 wks” value ([1]; 40° C./75% RH) was 97.2% and 98.8% and the “% Purity (after challenge)” value ([1]; 40° C./75% RH, 7 days) was 99.8%. The “% Purity (reference material)” value ([1]; 40° C./75% RH, 7 days) was 102.1%, the “% Purity after 60° C./80% RH, 2 wks” value [1] was 90.4% and 97.6% and the “% Purity after 60° C./80% RH, 4 wks” value [1] was 89.0% and 95.3%. The “% Purity after 80° C., 2 wks” value ([1]; 80° C.) was 94.1% and 96.9%, the “% Purity after 80° C., 4 wks” value ([1]; 80° C.) was 92.3% and 95.4% and the “% Purity (after challenge)” value ([1]; 80° C., 7 days) was 99.8%. The “% Purity (reference material)” value ([1]; 80° C., 7 days) was 101.4%, the “% Purity (after challenge)” value ([1]; Reference, 0 days) was 99.8% and the “% Purity (reference material)” value ([1]; Reference, 0 days) was 100%. For the same compound, the “% Purity (after challenge)” value [1, 4] was 99.2%, the “% Purity (reference material)” value [1, 4] was 95.0% and the “% Purity (after challenge)” value [1, 5] was 99.0%. The “% Purity (reference material)” value [1, 5] was 94.7%, the “% Purity (after challenge)” value [1, 6] was 99.6% and the “% Purity (reference material)” value [1, 6] was 98.0%. For the same compound, the “% Purity (after challenge)” value [1, 7] was 98.5%, the “% Purity (reference material)” value [1, 7] was 95.6% and the “Initial Purity” value [1] was 97.0% and 98.7%.
For `CCN(CC)C(=O)c1ccc([C@H](c2cccc(N)c2)N2CCN(Cc3ccc(F)cc3)CC2)cc1` [Phosphate Salt of Compound A1, 4-{(R)-(3-aminophenyl)[4-(4-fluorobenzyl)piperazin-1-yl]methyl}-N,N-diethylbenzamide], the “% Purity after 40° C./75% RH, 2 wks” value ([1]; 40° C./75% RH) was 88.6%, the “% Purity after 40° C./75% RH, 4 wks” value ([1]; 40° C./75% RH) was 87.7% and the “% Purity after 60° C./80% RH, 2 wks” value [1] was 81.4%. The “% Purity after 60° C./80% RH, 4 wks” value [1] was 78.4%, the “% Purity after 80° C., 2 wks” value ([1]; 80° C.) was 86.6% and the “% Purity after 80° C., 4 wks” value ([1]; 80° C.) was 83.4%. For the same compound, the “Initial Purity” value [1] was 91.2%.
With `CCN(CC)C(=O)c1ccc([C@H](c2cccc(N)c2)N2CCN(Cc3ccc(F)cc3)CC2)cc1` [Sulfate Salt of Compound A1, 4-{(R)-(3-aminophenyl)[4-(4-fluorobenzyl)piperazin-1-yl]methyl}-N,N-diethylbenzamide] the “% Purity after 40° C./75% RH, 2 wks” value ([1]; 40° C./75% RH) was 92.6% and 88.7%, the “% Purity after 40° C./75% RH, 4 wks” value ([1]; 40° C./75% RH) was 91.2% and 87.3% and the “% Purity after 60° C./80% RH, 2 wks” value [1] was 74.1% and 80.5%. For the same compound, the “% Purity after 60° C./80% RH, 4 wks” value [1] was 62.3% and 80.6%, the “% Purity after 80° C., 2 wks” value ([1]; 80° C.) was 78.5% and 88.7% and the “% Purity after 80° C., 4 wks” value ([1]; 80° C.) was 67.1% and 85.7%. For the same compound, the “Initial Purity” value [1] was 93.3% and 94.7%.
For `CN1C(=O)CN=C(c2ccccc2)c2cc(Cl)ccc21` [diazepam, reference compound], the “level of efficacy in modified Geller-Seifter conflict model” value (rat) was “about 250%”.
